Common to all, as to type: in vivo
Data set [1] deals with sodium urate induced synovitis model in Beagle dogs. The data set is described as follows: Caliper measurement of patella/patellar tendon (knee cap) width, percent baseline measure of inflammation, sodium urate induced synovitis model. As to the method:
Study Design: The study was a randomized, blinded, preclinical study using a controlled, parallel, matched-group design. Thirty-two subjects meeting the inclusion criteria were enrolled in the trial and allocated to 4 balanced groups; therefore one group received 2 treatments separated by a minimum of 14 days. Following induction of synovitis by sodium urate injections, effectiveness of transdermal formulations were evaluated using a pain questionnaire assessment and joint measurements at various time points. [table] On days 0, 2, 7 and 22, subjects who were schedules for synovitis induction were treated according to their assigned treatment condition. Test article administration occurred 30 minutes following synovitis induction, i.e. sodium urate injection. Transdermal treatment doses were measured in milligrams using an analytical scale and were then applied directly to the induce stifle. Transdermal treatments were rubbed into the dog's skin for a minimum of 1 minute. […] If IV administration of the propofol was not possible due to inaccessibility of the vein, the subjects were masked down using the isoflurane-oxygen mixture and the event was recorded on the anesthesia record. […] Each treatment group had the same number of dogs induced in the left […]) Caliper measurements: Within thirty minutes of synovitis induction and 4.5, 8.5, 24.5 and 30.5 hours following induction (±15 minutes), the width of the patella and the patellar tendon were measured in millimeters using […] 150 mm plastic gauge calipers which measured in increments of 1 mm. […] The cumulative pain scored and stifle measurements were analyzed using a repeated-measures analysis of variance (ANOVA) with the treatment group (7 factors( ) as between-subject measure and time-point (5 factors for pain and 4 factors for the inflammation measure) as a within-subject measure. Post-hoc Fisher's test was used to examine differences as appropriate. The Statistica 11 (Statsoft, Tulsa, Okla.) statistical software package was used with significance set to […].

Data set [2] in a line: Oral and transdermal celecoxib concentrations in canine sera and synovial fluid. The following applies: dogs; for concentration at 7 days / concentration at 60 min: dog. The source says:
A Latin Square design was used employing six aged dogs with radiographic evidence of bilateral shoulder osteoarthritis. The treatment cycle consisted of six days twice daily followed by a period of seven days devoid of treatment. Blood and synovial fluid samples (from both stifles and shoulders) were collected on the last (sixth) day of drug application and on the last (seventh) day of the washout period.
Test article: 3% celecoxib in exemplary transdermal base formulation 4; ˜0.5 g gel per shoulder (2) and stifle joint (2) twice daily (i.e. 60 mg celecoxib total twice daily).
Control article: Exemplary transdermal base formulation 5; ˜1 g gel per shoulder joint twice daily.
Positive control: 30 mg celecoxib in capsule PO twice daily.
Serum and Synovial Fluid Collection:
Whole blood and synovial fluid samples were collected from the dogs 60 mins post treatment on the […], and additional samples were collected after a 7 day washout. Baseline synovial fluid was collected from untreated canine subjects. Synovial fluid was collected under sedation (medetomidine, 0.01 mg/kg) and butorphenol (0.1 mg/kg, IV). The fluid was collected by arthrocentesis into the joint following surgical preparation of the area. Synovial fluid was collected from the stifle or shoulder joints.
Analytical Method Development and Quantification:
The method for quantification of celecoxib in serum, plasma and synovial fluid was completed by the National Research Council of Canada (NRC). The results were categorized and summarized for average and deviations for each treatment group and time period.
The objective of this study was to determine if the transdermal formulations of the application were capable of delivering celecoxib either into the systemic circulation and joint synovial fluid and compare transdermal versus oral routes of administration. A canine model was used over two time periods. The first time period consisting of a twice daily drug administration regimen for six days to assess concentrations predictive of chronic use. The second time period followed immediately after, wherein all animals were withdrawn of drug administration and tested after seven days to determine if celecoxib was completely metabolized.

Data set [3] relates to sodium urate induced synovitis model in Beagle dogs. The data set is described as follows: Pain questionnaire assessment (cumulative pain score), sodium urate induced synovitis model. On the procedure: Study Design: The study was a randomized, blinded, preclinical study using a controlled, parallel, matched-group design. Thirty-two subjects meeting the inclusion criteria were enrolled in the trial and allocated to 4 balanced groups; therefore one group received 2 treatments separated by a minimum of 14 days. Following induction of synovitis by sodium urate injections, effectiveness of transdermal formulations were evaluated using a pain questionnaire assessment and joint measurements at various time points. [table] On days 0, 2, 7 and 22, subjects who were schedules for synovitis induction were treated according to their assigned treatment condition. Test article administration occurred 30 minutes following synovitis induction, i.e. sodium urate injection. Transdermal treatment doses were measured in milligrams using an analytical scale and were then applied directly to the induce stifle. […] If IV administration of the propofol was not possible due to inaccessibility of the vein, the subjects were masked down using the isoflurane-oxygen mixture and the event was recorded on the anesthesia record. […] Specifically, the ability for each dog to walk, trot, gallop, rear, jump over a low obstacle, climb and descend stairs, jump down from a perch and general activity is evaluated in parallel to subjective evaluation of pain observed during each behavior. […]

The mark [4] stands for this setting: Oral, 30 mg capsule PO twice daily (60 mg/day), Chronic administration (6 days).
Setting [5] is: Transdermal (formulation 4), Washout (7 days).
The mark [6] stands for this setting: Transdermal, 3% celecoxib in formulation 4, 120 mg/day, Chronic administration (6 days).

Molecules are shown by their SMILES. Read-outs that look alike come from different tables or passages of the source.

As for `Cc1ccc(-c2cc(C(F)(F)F)nn2-c2ccc(S(N)(=O)=O)cc2)cc1` [celecoxib], the “inflammation compared to Voltaren” value in data set [1] (8 hours) is listed as “significantly reduced inflammation”. Further, the “percent baseline measure of inflammation (knee cap measurement) in comparison to no treatment” value in data set [1] (24 hours) is recorded as “significantly reduced”. The “effects on inflammation compared to negative control” value in data set [1] (summary statement, no time point stated) is given as “no effects”. Also, the concentration at 7 days in data set [2] (serum, 30 mg, Oral, Washout (7 days), read-out: Serum drug concentration of celecoxib) worked out at 0 ng/mL; in data set [2] (serum, topical, 60 mg, Transdermal (formulation 4), Washout (7 days), read-out: Serum drug concentration of celecoxib), 4 ng/mL; in data set [2] (synovial fluid, 30 mg, Oral, Washout (7 days), read-out: Synovial fluid drug concentration of celecoxib), 1 ng/mL; in data set [2] (synovial fluid, topical, 60 mg, Transdermal (formulation 4), Washout (7 days), read-out: Synovial fluid drug concentration of celecoxib), 17 ng/mL. In addition, the concentration at 60 min in data set [2] (serum, topical, 60 mg, Transdermal, 3% celecoxib in formulation 4, 120 mg/day, Chronic administration (6 days), read-out: Serum drug concentration of celecoxib) stood at 221 ng/mL; in data set [2] (serum, Oral, 30 mg capsule PO twice daily (60 mg/day), Chronic administration (6 days), read-out: Serum drug concentration of celecoxib) it was 312 ng/mL; in data set [2] (synovial fluid, topical, 60 mg, Transdermal, 3% celecoxib in formulation 4, 120 mg/day, Chronic administration (6 days), read-out: Synovial fluid drug concentration of celecoxib), 203 ng/mL; in data set [2] (synovial fluid, Oral, 30 mg capsule PO twice daily (60 mg/day), Chronic administration (6 days), read-out: Synovial fluid drug concentration of celecoxib), 76 ng/mL. Moreover, the “Serum drug concentration of celecoxib” value is given as 312 (±214) ng/mL in data set [2] (setting [4]), 4 (±6) ng/mL in data set [2] (setting [5]) and 221 (±227) ng/mL in data set [2] (setting [6]). In addition, the “Synovial fluid drug concentration of celecoxib” value in data set [2] (setting [4]) was 76 (±57) ng/mL; in data set [2] (Oral, Washout (7 days)), 1 (±1) ng/mL; in data set [2] (setting [5]) it was 17 (±35) ng/mL; in data set [2] (setting [6]) it was 203 (±165) ng/mL. For the same molecule, the “amount of drug the transdermal route requires to achieve the same circulating concentration as oral” value in data set [2] (chronic treatment, transdermal versus oral) is listed as “twofold”. In data set [2] (serum, oral or transdermal), the “reduction of circulating drug concentrations by one week washout” value is given as above 95%. In data set [2] (synovial fluid, oral or transdermal), the “reduction of drug concentration by one week washout” value is above 90%. The “cumulative pain score in comparison to no treatment” value in data set [3] (4 hours after treatment) and in data set [3] (8 hours after treatment) was “significantly reduced” each time.
